Reference: EP4129284B1, “SERTACONAZOL FOR PROVIDING A SPORISTATIC AND/OR SPORICIDAL EFFECT” (Dr. Pfleger Arzneimittel GmbH, priority 2021, dated 2023)

Tests used:
Assay type in all cases: cell-based, human
IL-1α = test system: IL-1α
Experimental: (§1) Additionally, the influence on the cell viability and the release of lactate dehydrogenase (LDH) was examined over the incubation time. Disruptions of the cell membranes can be measured by the release of the cytosolic enzyme LDH and be evaluated as a marker for cellular necrosis. As the biocompatibility of the material is determined by further cellular and molecular factors, the analysis of the cellular interleukin release allows the conclusion on e.g. pro-inflammatory effects of the substances, which would not be possible to be detected by sole cytotoxicity. Such interleukins are interleukins 1α, 6 or 8, which are involved in coordinating the cellular proliferation, cell migration and possible inflammatory processes. Such a method is described in, for example, Wiegand C, Hipler UC. Evaluation of biocompatibility and cytotoxicity using keratinocyte and fibroblast cultures. Skin Pharmacol Physiol 2009; 22:74-82; Wiegand C, Winter D, Hipler UC. Molecular-weight-dependent toxic effects of chitosans on the human keratinocyte cell line HaCaT. Skin Pharmacol Physiol. 2010;23(3):164-70.
(§2) The spore suspensions and the solutions of sertaconazol, ciclopiroxolamin and terbinafin were prepared as in Example 1, wherein the respective test concentrations were obtained by diluting these solutions in ultrapure water (WFI; Fresenius Kabi) instead of SGB (Merck). Full skin models were produced as previously described [Reddersen K, Wiegand C, Elsner P, Hipler UC. Three-dimensional human skin model infected with Staphylococcus aureus as a tool for evaluation of bioactivity and biocompatibility of antiseptics. Int J Antimicrob Agents. 2019; 54(3):283-291; Wiegand C, Fink S, Beier O, Horn K, Pfuch A, Schimanski A, Grünler B, Hipler UC, Elsner P. Dose- and Time-Dependent Cellular Effects of Cold Atmospheric Pressure Plasma Evaluated in 3D Skin Models. Skin Pharmacol Physiol. 2016;29(5):257-265].Particularly, normal human dermal fibroblasts (NHDF; Lot 1060702.1, Promocell) and normal human epidermal keratinocytes (NHEK; Lot 9100102, Promocell) were used. Fibroblasts were cultivated in Dulbecco's modified eagle medium (DMEM; Lot MC09049P, Amimed), with 2% foetal calf serum (Lot P160509; PAN), 5 ng/mL hFGF (Lot 0329586; novoprotein) and 5 µg/ml Insulin (Lot H07443P, AMIMED) at 37°C and a 5% CO2 atmosphere. Keratinocytes were cultivated in keratinocyte medium (KBM, Lot 446M063, Promocell) at 37°C and a 5% CO2 atmosphere. The cultivation was performed over 7 days in 75 cm^2 cell culture flasks (Greiner Bio-One). The cells were subsequently detached with Trypsin-EDTA (Lot 2091326; Gibco) and dissolved in the respective medium. For producing the dermis equivalent, fibroblasts were cultivated in 12-well inserts (Greiner bio-one) with DMEM (Lot MC09049P, Amimed) + 10% foetal calf serum (Lot P160509, PAN) + 1% Gentamycin (Lot 2027100, Gibco) + 150 µg/ml ascorbic acid (Lot BCBS1081V, Sigma) for 3 weeks at […] and 5 % CO2. The medium was changed all 2-3 days. Before seeding the keratinocytes for producing the […], the medium surrounding the insert was completely removed and the dermis upper layer was coated with fibronectin (50 µg/mL; Lot 435P078, Promocell). After 30 min of incubation of the dermis equivalent with fibronectin, the seeding of the keratinocytes was performed with 2 × 10^5 cells / insert in KBM (Lot 446M063, Promocell) + 5% FKS (Lot P160509, PAN) + 1% Gentamycin (Lot 2027100, Gibco). Subsequently, the skin models were incubated for 45 min in the incubator before the models were flooded with KBM + 5% FKS + 1% Gentamycin. The skin models were cultivated for 7 days by submersion in the medium with decreasing foetal calf serum concentration (5 %, 2 %, 0 %). The medium was changed all 2-3 days. After the cultivation by submersion, the skin models were further cultivated for 12 days at the air-medium interface (airlift cultivation). […]

IL-6 = test system: IL-6
Experimental: as §1, §2

IL-8 = test system: IL-8
Experimental: as §1, §2

Row | secretion of IL-1α (IL-1α) | release of IL-6 (IL-6) | release of IL-8 (IL-8) | Structure (SMILES)
1 | no significant secretion | – | – | Cc1cc(C2CCCCC2)n(O)c(=O)c1 [Ciclopiroxolamin, ciclopiroxolamin]
2 | – | does not induce the release | does not induce the release | Clc1ccc(C(Cn2ccnc2)OCc2csc3c(Cl)cccc23)c(Cl)c1 (stereo not shown) [Sertaconazol, sertaconazol]
3 | no significant secretion | – | – | CN(C/C=C/C#CC(C)(C)C)Cc1cccc2ccccc12 [Terbinafin, terbinafin]
